Data set [1] relates to A2 receptor. To be noted: background section; cited from earlier work.
The subject of another data set is A1 and A2 receptors. Conditions: selectivity, background section; cited from earlier work.
In data set [2] the target is T1, A2 receptor (Rattus norvegicus, UniProt P30543).
T1 construct: using membranes from rat brain striatum; from tissue; host or cells: rat brain striatum membranes
The experiment in a line: A2 adenosine receptor binding, displacement of 3H-CGS 21680, rat brain striatum membranes. The method, then:
Non-specific binding is assessed in the presence of 20 μm 2-chloroadenosine.
(§1) The assays are run in glass test tubes in duplicate at 25° C. Once the membranes are added, the tubes are vortexed and incubated at 25° C. for 60 minutes (A1 assay) or 90 minutes (A2 assay) on a rotary shaker. The assay tubes are vortexed halfway through the incubation and again near the end. The assays are terminated by rapid filtration through 2.4 cm GF/B filters using a Brandel Cell Harvestor. The test tubes are washed three times with cold 50 mM tris-HCl (pH 7.7 or 7.4), with filtration being completed within 15 seconds. The damp filter circles are placed in glass scintillation vials filled with 10 ml of Aquasol II (New England Nuclear). The vials are allowed to shake overnight on a rotary shaker and are placed into a liquid scintillation analyzer for two minute counts. IC50 values for receptor binding, i.e. the concentration at which a compound of Formula I displaced the radiolabeled standard, are obtained using a curve-fitting computer program (RS/1, Bolt, Beranek and Newman, Boston, Mass.).
On the technique in general: Displacement assays read how much labelled ligand stays bound in the presence of the test substance.

The next data set relates to swine coronary arteries. The experiment in a line: In vitro vasorelaxation in isolated swine coronary arteries. Format: cell-based. The method, then: Swine coronary arteries are obtained from a local slaughter house, dissected carefully and cleaned of fat, blood and adhering tissue. Rings approximately 2-3 mm wide are cut and transferred to water-jacketed tissue baths (10 mL) filled with warm (37° C.), oxygenated (O2/CO2:95%/5%) Krebs-Henseleit buffer and mounted on L-shaped hooks between stainless steel rods and a force transducer. […] PGF2a, before being exposed to 3 μM PGF2a.

The next data set addresses T2, A1 receptor (Rattus norvegicus, UniProt P25099).
T2 construct: using a membrane preparation of whole rat brain; from tissue; host or cells: whole rat brain membranes
T2 sequence (P25099 1-326): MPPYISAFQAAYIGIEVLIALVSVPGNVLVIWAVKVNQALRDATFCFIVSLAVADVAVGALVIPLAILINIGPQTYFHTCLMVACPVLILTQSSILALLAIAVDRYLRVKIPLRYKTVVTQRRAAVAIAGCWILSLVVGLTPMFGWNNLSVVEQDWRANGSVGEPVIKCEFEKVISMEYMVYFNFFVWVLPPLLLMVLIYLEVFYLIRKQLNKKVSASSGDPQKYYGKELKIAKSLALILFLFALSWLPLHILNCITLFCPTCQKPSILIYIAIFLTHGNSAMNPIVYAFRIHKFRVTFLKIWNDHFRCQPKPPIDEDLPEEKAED
The experiment in a line: A1 adenosine receptor binding, displacement of 3H-CHA, whole rat brain membranes. To be noted: 3H-CHA displacement, 25° C., 60 minutes. The method, then: Non-specific binding is assessed in the presence of 1 mM theophylline.
as §1

The subject of the next data set is rat adipocytes. The experiment in a line: Antilipolytic activity in rat adipocytes (in vitro lipolysis assay, glycerol production). Format: cell-based. Conditions: for EC50: read-out: EC50 (50% inhibition of glycerol production). The method, then: Adipose tissue is removed from anesthetized rats and rinsed twice in incubation medium (2.09 g sodium bicarbonate and 0.04 g EDTA, disodium salt, in 1 L Krebs buffer). Each rat (300-350g) yields approximately 4 ml of adipose tissue. The adipose tissue (35 mL) is cut into small pieces with scissors and washed with incubation medium (50 mL). The mixture is poured into the barrel of a 50 mL syringe to which is attached a short piece of clamped tubing instead of a needle. The aqueous phase is allowed to drain. A second wash with incubation medium is passed through the syringe. The tissue is added to 50 mL of collagenase solution (collagenase (90 mg), bovine serum albumin (BSA) (500 mg), and 0.1 M calcium chloride solution (1 mL), in incubation medium (50 mL)) in a 1 L bottle. The mixture is shaken in an environmental at 37 ° C. for about 60 minutes under an atmosphere of 95% oxygen/5% carbon dioxide to effect digestion of the tissue. The dispersed cells are poured through 2 layers of cheese cloth into a 100 mL plastic beaker. The undigested clumps in the cloth are rinsed once with incubation medium (20 mL). The cells in the beaker are centrifuged in 2 plastic tubes for 30 seconds at room temperature at 300 rpm. The aqueous phase is aspirated from beneath the loosely packed layer of floating fat cells and discarded. The adipocytes are gently poured into a 250 mL plastic beaker containing 100 mL of rinse solution (1 g BSA per 100 mL incubation medium). After gentle stirring the centrifugation step is repeated. Another wash with rinse solution follows. The cells are pooled and their volume is estimated with a graduated cylinder. The adipocytes are diluted in twice their volume of assay buffer (incubation medium (120 mL), BSA (1.2 g), pyruvic acid (13 mg)).
The assay is performed in 20 mL plastic scintillation vials and the total assay volume is 4.2 ml. Assay buffer (2.5 mL), diluted adipocytes (1.5 mL), and a solution of the compound to be tested (12.3 μL) adenosine agonist (12.3 μL; varying concentration) is incubated in the environmental shaker for 15 minutes, then the reaction is started with norepinephrine solution (41.2 μL) (10 nM, in a carrier solution containing water (100 mL), BSA (4 mg), and 0.1 M EDTA (20 μL))and adenosine deaminase (1 μg/ml, 41.2 μL). After sixty minutes in the shaker the reaction is terminated by putting the vials on ice. […] The hard lipid layer is removed by aspiration and the aqueous layer is assayed for glycerol (400 μL of sample). The positive control is done in the absence of any adenosine agonist, substituting water in place of the solution to be tested.

In data set [3] the test system is normotensive anesthetized rat. In words: Mean arterial blood pressure and heart rate in normotensive anesthetized rat. In kind it is in vivo. To be noted: for Anesthetized Rat HR/ED25: intravenous dose lowering heart rate by 25%; for Anesthetized Rat MAP/ED25: intravenous dose lowering mean arterial pressure by 25%. The protocol:
Normotensive rats are anesthetized with sodium pentobarbital (50 mg/kg, i.p.) and placed on a heated surgical table. Cannulas are inserted into the femoral artery and veined to allow the measurement of arterial pressure and to facilitate the intravenous administration of test compounds. The animals are allowed to equilibrate for 10 minutes after surgery. Mean arterial pressure is continuously measured and recorded and heart rate is monitored using the arterial pressure pulse to trigger a cardiotachometer. After baseline parameters are established and recorded, increasing doses (1, 3, 10, 30, 100, 300 and 1000 μg/kg) of the compound of Formula I to be tested are administered intravenously. Maximal changes in the cardiovascular parameters are observed after each dose of the adenosine agonist. Only one compound is administered per rat.

For data set [4], the system named is spontaneously hypertensive rat (SHR). The experiment in a line: Oral antihypertensive activity in conscious spontaneously hypertensive rat (SHR). Format: in vivo. Conditions: D signifies decrease, I signifies increase. The protocol: The oral antihypertensive activity of compounds of Formula I are examined in conscious spontaneously hypertensive rats. The rats are anesthetized with sodium phenobarbitol (50 mg/kg i.p.). A telemetry transducer is implanted into the rats abdomen via midline incision. The cannula of the transducer is inserted into the abdominal aorta to allow direct measurement of arterial pressure in the conscious SHR. The transducer is secured to the abdominal wall. After recovery from surgery (minimum of seven days), the SHR are placed on a receiver plate and the transducer/transmitter is activated. Systolic, diastolic and mean arterial pressure and heart rate are recorded for 1.5 hours in the unrestrained conscious rat to establish a stable baseline. Each rat then received a single dose of the compound of Formula I to be tested, or vehicle, and changes in arterial pressure and heart rate are monitored for 20 hours and recorded.

Setting [5] is: 3H-CGS 21680 displacement, rat brain striatum membranes, 25° C., 90 minutes, read-out: Adenosine Receptor Binding Activity/IC50 (nM) A2.
[6] abbreviates: Sus scrofa, read-out: Vasorelaxation in Swine Coronary Artery/IC50 (μM).
Setting [7] is: Adipocyte, rat adipocytes, norepinephrine-stimulated.
The mark [8] stands for this setting: 50% reduction in tension of rings contracted with 3 μM PGF2a, read-out: Vasorelaxation in Swine Coronary Artery/IC50.
Where [9] appears, read: rat adipocytes, norepinephrine-stimulated.

Where two headings read alike, the source gives them in different places.

T1 sequence (P30543 whole entry): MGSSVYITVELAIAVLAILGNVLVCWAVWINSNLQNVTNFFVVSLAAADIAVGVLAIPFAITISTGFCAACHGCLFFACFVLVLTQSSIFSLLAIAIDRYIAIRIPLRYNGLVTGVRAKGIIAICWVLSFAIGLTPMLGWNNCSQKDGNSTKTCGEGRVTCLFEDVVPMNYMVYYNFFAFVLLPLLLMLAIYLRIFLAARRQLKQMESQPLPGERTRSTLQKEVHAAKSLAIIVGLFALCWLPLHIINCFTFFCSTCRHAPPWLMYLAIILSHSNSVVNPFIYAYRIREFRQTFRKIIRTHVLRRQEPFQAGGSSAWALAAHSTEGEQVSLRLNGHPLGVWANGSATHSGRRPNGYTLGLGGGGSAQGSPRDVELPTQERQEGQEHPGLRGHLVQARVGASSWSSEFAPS

In the case of `Nc1nc(Nc2ccccc2)nc2c1ncn2[C@@H]1O[C@H](CO)[C@@H](O)[C@H]1O` [CV-1808], the “fold less potent than NECA in affinity for the A2 receptor” value in the data set on A2 receptor [1] was 10 fold. Besides, the A2/A1 ratio in the data set with A1 and A2 receptors is given as 0.19.
What is called EC50 is the concentration at which the effect is half-maximal. On to `CO[C@@H]1[C@H](O)[C@@H](CO)O[C@H]1n1cnc2c(N[C@@H]3CC=CC[C@H]3c3cccs3)ncnc21` (relative stereo) [Example 49, N^6-[trans-5-(2-thienyl)cyclohex-1-en-4-yl]-2′-O-methyladenosine], for which the IC50 worked out at 2880 nM at A2 receptor [2] (setting [5]), 9.81 µM with swine coronary arteries (setting [6]) and 69 nM on A1 receptor. Moreover, the EC50 in the data set with rat adipocytes (setting [7]) amounted to 18.6 nM.
The like results for `CCNC(=O)[C@H]1C[C@@H](n2cnc3c(N[C@H](C)Cc4ccc(Cl)s4)ncnc32)[C@@H]2OC(=S)O[C@@H]21` [Example 46, (2S)-2a,3a-dihydroxy-4β-[N6-[2-(5-chloro-2-thienyl)-(1R)-1-methylethyl]amino-9-adenyl]cyclopentane-1β-N-ethylcarboxamide-2,3-thiocarbonate] were, in that order, 81 nM, 3.52 µM, 13.5 nM and 4 nM.
With `CCNC(=O)C1CC(n2cnc3c(NCCNc4nc5ccccc5s4)ncnc32)C(O)C1O` (racemic) [Example 29, (±)-N^6-[2-(2′-aminobenzothia-zoly)ethyl]carbocyclic adenosine-5′-N-ethyl carboxamide], the IC50 with swine coronary arteries (setting [8]) is 22 µM. For the same compound, in [3], the “Anesthetized Rat HR/ED25” value turned out to be 0.031 mg/kg and the “Anesthetized Rat MAP/ED25” value was found to be 0.016 mg/kg. Also, in data set [4] (single oral dose 5 mg/kg), the “SHR HR/%” value is reported as 12 (D) % and the “SHR MAP/%” value is 18 (D) %.
On to `CCNC(=O)C1CC(n2cnc3c(NCCc4cccs4)ncnc32)C(O)C1O` (single isomer, unassigned; (-)) [Example 26, (−)-N^6-[(thiophen-2″-yl)ethan-2-yl]carbocyclic adenosine-5′-N-ethyl carboxamide], for which the IC50 at A2 receptor [2] (setting [5]) turned out to be 63.1 nM. Moreover, the IC50 in the data set on swine coronary arteries (setting [8]) came out at 0.082 µM. The IC50 on A1 receptor stood at 87.1 nM. Moreover, in [3], the “Anesthetized Rat HR/ED25” value is greater than 0.03 mg/kg and the “Anesthetized Rat MAP/ED25” value stood at 0.004 mg/kg. In addition, the “% Inhibition of glycerol production, 1 μM” value in the data set with rat adipocytes (1 μM compound versus positive control, rat adipocytes, norepinephrine-stimulated) turned out to be 96%. Besides, the EC50 in the data set with rat adipocytes (setting [9]) was 89 nM. Further, in data set [4] (single oral dose 2.5 mg/kg), the “SHR HR/%” value is on record as 3 (I) % and the “SHR MAP/%” value is recorded as 41 (D) %.
The melting point is the temperature of the solid-liquid transition. `OC[C@H]1O[C@@H](n2cnc3c(N[C@@H]4CC=CC[C@H]4c4cccs4)ncnc32)[C@H](O)[C@@H]1O` (relative stereo) [Example 4, N6-[trans-2-(thiophen-2-yl)cyclohex-4-en-yl]adenosine]: the melting point is 105 to 110 °C. Also, the IC50 at A2 receptor [2] (setting [5]) amounted to 55 nM. Moreover, in the data set on swine coronary arteries (setting [6]), the IC50 is 0.73 µM. For the same compound, the IC50 at A1 receptor is 1.66 nM. In addition, in data set [3], the “Anesthetized Rat HR/ED25” value stood at 0.019 mg/kg and the “Anesthetized Rat MAP/ED25” value amounted to 0.013 mg/kg. Also, in [4] (single oral dose 5 mg/kg), the “SHR HR/%” value was 20 (D) % and the “SHR MAP/%” value is on record as 28 (D) %.
On to `CCNC(=O)[C@H]1C[C@@H](n2cnc3c(NC(Cc4cccs4)C(C)C)ccnc32)[C@H](O)[C@@H]1O` (stereo partly drawn) [Example 38, [1S-[1a,2b,3b,4a]]-4-[7-[[2-(2-thienyl)-1-isopropylethyl]amino]-3H-imidazo[4,5-b]pyridin-3-yl]-N-ethyl-2,3-dihydroxycyclopentanecarboxamide], for which the melting point fell in the range of 75 to 85 °C. Moreover, the IC50 on A2 receptor [2] (setting [5]) worked out at 55.5 nM. For the same compound, the IC50 with swine coronary arteries (setting [6]) is 0.47 µM. The IC50 at A1 receptor was found to be 5.7 nM.
With `CCNC(=O)[C@H]1C[C@@H](n2cnc3c(N[C@H](C)Cc4cccs4)ccnc32)[C@H](O)[C@@H]1O` [Example 40, [1S-[1a,2b,3b,4a(S*)]]-4-[7-[[2-(2-thienyl)-1-methylethyl]amino]-3H-imidazo[4,5-b]pyridin-3-yl]-N-ethyl-2,3-dihydroxycyclopentane-carboxamide], the melting point is 155 to 160 °C. On A2 receptor [2] (setting [5]), the IC50 was found to be 68.8 nM. Besides, the IC50 with swine coronary arteries (setting [6]) stood at 283 µM. At A1 receptor, this compound showed an IC50 of 9.3 nM.
For orientation: inhibition means the change of the read-out against control, counted positive when it falls. Turning to `OC[C@H]1O[C@@H](n2cnc3c(NC4CCCC4)ncnc32)[C@H](O)[C@@H]1O` [CPA, N-cyclopentyladenosine], the IC50 on A2 receptor [2] was 1580 nM; with swine coronary arteries (Sus scrofa, read-out: Vasorelaxation (IC50)), 3.18 µM. The inhibition at 0.1 µM in the data set with rat adipocytes (Rattus norvegicus, Adipocyte, read-out: % Inhibition of glycerol production, 0.1 μM) came out at 97%. Besides, in the data set with rat adipocytes (Rattus norvegicus, Adipocyte, read-out: % Inhibition of glycerol production, 1 μM), the inhibition at 1 µM amounted to 100%. In addition, in the data set with rat adipocytes (Rattus norvegicus, Adipocyte), the 50% effective concentration (EC50) came out at 0.31 nM.
Take `CCNC(=O)C1CC(n2cnc3c(N[C@H](C)Cc4ccc(Cl)s4)ncnc32)C(O)C1O` (single isomer, unassigned; (-)) [Example 6]: the IC50 was 12.9 nM on A2 receptor [2] (setting [5]), 0.021 µM in the data set with swine coronary arteries (setting [8]) and 2.69 nM on A1 receptor. The 50% effective concentration (EC50) in the data set with rat adipocytes (setting [9]) came out at 0.76 nM. Further, in data set [4] (single oral dose 1 mg/kg), the “SHR HR/%” value is listed as 7 (I) %. The “SHR MAP/%” value in data set [4] (single oral dose 1 mg/kg) is 18 (D) %.

The record behind these values is patent US6392049B1, “Process for preparing 2,4-dihydroxypyridine and 2,4-dihydroxy-3-nitropyridine” (Aventis Pharmaceuticals Inc., priority 1996, dated 2002).
